From patent publication US7081531B2, “Bridged bicyclic amine derivatives useful as CCR-3 receptor antagonists” (Roche Palo Alto LLC, priority 2003, dated 2006)

Legend:
[1] = molecular target: T1, CCR-3 receptor (Homo sapiens, UniProt P51677); assay: CCR-3 receptor binding assay, inhibition of 125I eotaxin binding to CCR-3 L1.2 transfectant cells; conditions: inhibition of 125I-eotaxin binding to CCR-3 L1.2 transfected cells, 1 hour at rt
T1 construct: expressed in transfected cells; host or cells: L1.2 (murine pre-beta lymphoma line) transfected with CCR-3
T1 sequence (P51677 1-355): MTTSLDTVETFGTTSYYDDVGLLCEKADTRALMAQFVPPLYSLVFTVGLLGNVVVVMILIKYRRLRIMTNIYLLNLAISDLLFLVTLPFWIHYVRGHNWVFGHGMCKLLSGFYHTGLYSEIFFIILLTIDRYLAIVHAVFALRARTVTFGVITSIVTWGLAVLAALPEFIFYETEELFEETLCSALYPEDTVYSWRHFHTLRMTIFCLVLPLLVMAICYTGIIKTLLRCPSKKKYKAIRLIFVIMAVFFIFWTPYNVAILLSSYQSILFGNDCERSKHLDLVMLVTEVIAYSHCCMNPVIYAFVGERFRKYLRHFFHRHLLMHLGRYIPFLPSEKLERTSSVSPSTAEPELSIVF
Method: CCR-3 Receptor Binding Assay—In Vitro
The CCR-3 antagonistic activity of the compounds of the invention was determined by their ability to inhibit the binding of ^125I eotaxin to CCR-3 L1.2 transfectant cells (see Ponath, P. D. et al., J. Exp. Med., 183:2437–48, (1996)).
The assay was performed in Costar 96-well polypropylene round bottom plates. Test compounds were dissolved in DMSO and then diluted with binding buffer (50 mM HEPES, 1 mM CaCl2, 5 mM MgCl2, 0.5% bovine serum albumin (BSA), 0.02% sodium azide, pH 7.24) such that the final DMSO concentration was 2%. 25 μl of the test solution or only buffer with DMSO (control samples) was added to each well, followed by the addition of 25 μl of ^125I-eotaxin ([…]) (NEX314, New England Nuclear, Boston, Mass.) and 1.5×10^5 of the CCR-3 L1.2 transfected cells in 25 μl binding buffer. The final reaction volume was 75 μl.
After incubating the reaction mixture for 1 hour at rt, the reaction was terminated by filtering the reaction mixture through a polyethylenimine-treated Packard Unifilter GF/C filter plate (Packard, Chicago, Ill.). The filters were washed four times with ice cold wash buffer containing 10 mm HEPES and 0.5 M sodium chloride (pH 7.2) and dried at 65° C. for approximately 10 minutes. 25 μl/well of Microscint-20® scintillation fluid (Packard) was added and the radioactivity retained on the filters was determined by using the Packard TopCount®
Compounds of this invention were active in this assay.

Q: With `Cc1c(CN2CC3CCC2CC3Cc2ccc(Cl)c(Cl)c2)c(=O)n(-c2ccccc2)n1C` (stereo not shown) [Example 2, 4-[5-(3,4-Dichloro-benzyl)-2-aza-bicyclo[2.2.2]oct-2-ylmethyl]-1,5-dimethyl-2-phenyl-1,2-dihydro-pyrazol-3-one] as the molecule, how does the IC50 [1] read?
A: 331 nM

Q: Which IC50 [1] does the source give for `Cc1c(CN2C3CCC2CC(Cc2ccc(Cl)c(Cl)c2)C3)c(=O)n(-c2ccccc2)n1C` (stereo not shown) [Example 6, 4-[3-(3,4-dichloro-benzyl)-8-aza-bicyclo[3.2.1]oct-8-ylmethyl]-1,5-dimethyl-2-phenyl-1,2-dihydro-pyrazol-3-one] here?
A: 965 nM

Q: Which results are given for `COc1cc(NC(=O)N[C@@H](CN2C3CCC2CC(Cc2ccc(Cl)cc2)C3)[C@@H](C)O)cc(OC)c1OC` (stereo partly shown) [Example 7]?
A: IC50 [1]: 8.2 nM; melting point: 118 to 123 °C
